The values below come from patent US8614208B2, “Fused heterocyclic ring derivative and use thereof” (Takeda Pharmaceutical Company Limited, priority 2009, dated 2013).

For the assay, the target named is T1, Smo (Mus musculus, UniProt P56726).
T1 construct: endogenous in cells; host or cells: NIH-3T3 cells stably carrying the Gli reporter plasmid
T1 sequence (P56726 33-793): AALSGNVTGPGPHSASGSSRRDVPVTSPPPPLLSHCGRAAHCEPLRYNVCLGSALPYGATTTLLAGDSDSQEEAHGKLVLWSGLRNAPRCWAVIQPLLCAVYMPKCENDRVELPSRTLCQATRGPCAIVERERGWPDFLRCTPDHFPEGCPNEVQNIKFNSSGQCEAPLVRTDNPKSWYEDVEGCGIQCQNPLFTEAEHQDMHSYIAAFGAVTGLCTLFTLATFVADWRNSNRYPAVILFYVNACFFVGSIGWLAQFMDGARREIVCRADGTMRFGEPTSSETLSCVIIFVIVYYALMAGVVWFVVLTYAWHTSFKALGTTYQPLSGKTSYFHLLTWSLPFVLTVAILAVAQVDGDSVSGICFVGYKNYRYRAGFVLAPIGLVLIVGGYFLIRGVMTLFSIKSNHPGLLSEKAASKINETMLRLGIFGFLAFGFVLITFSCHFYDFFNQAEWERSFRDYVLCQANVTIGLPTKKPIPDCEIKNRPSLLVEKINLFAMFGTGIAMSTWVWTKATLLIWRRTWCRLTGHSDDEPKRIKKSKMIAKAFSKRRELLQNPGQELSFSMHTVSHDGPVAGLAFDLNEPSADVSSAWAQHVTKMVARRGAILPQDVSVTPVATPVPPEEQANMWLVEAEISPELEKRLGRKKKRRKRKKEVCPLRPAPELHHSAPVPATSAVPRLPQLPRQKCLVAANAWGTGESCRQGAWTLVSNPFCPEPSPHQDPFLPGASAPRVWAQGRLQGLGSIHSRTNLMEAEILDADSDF
Description: Gli reporter luciferase assay in NIH-3T3/Gli reporter cells stimulated with mouse Shh-N end fragment. It counts as cell-based. The conditions noted are these: NIH3T3; 1 μM compound; NIH-3T3/Gli reporter cells with mouse Shh-N culture supernatant, 48 hr; luciferase activity, control without compound as 100; read-out: inhibitory rate (%) at 1 μM. On the procedure:
Gli reporter plasmid was constructed by inserting 8×Gli-binding site and chicken δ-crystalline promoter into the upstream of luc+ of pGL3 (Promega).
prepared in reference to the base sequence described in GenBank accession No.; X02187, and chicken genome DNA (Clontech) as a template. PCR reaction was performed using Pfu Turbo (Stratagene) and following the attached protocol. The obtained 108 bp fragment was digested with restriction enzymes BglII and HindIII, and inserted into BglII-HindIII site of pGL3 to give plasmid pGL3/δ-cry promoter.
As 8×Gli-binding site, a sequence containing eight 9-bp Gli bound consensus sequences (GACCACCCA) described in Yoon et al., J. Biol. Chem., vol. 273, pages 3496-3501 (1998) was prepared from synthetic DNA. That is, two synthetic DNAs,
were heat treated at 95° C. for 2 minutes, and incubated at 37° C. for 1 hr for annealing to give a double stranded DNA of the above-mentioned two synthetic DNAs. The obtained double stranded DNA was digested with restriction enzymes BglII and KpnI, and the obtained DNA fragment was inserted into BglII-KpnI site of pGL3/δ-cry promoter to construct plasmid pGL3/δ-cry promoter, 8×Gli binding site, i.e., Gli reporter plasmid.
HEK293 cells were grown in D-MEM medium (Invitrogen) containing 10% fetal bovine serum in a 10 cm dish and pcDNA3.1/mShh-N was introduced into the cells using FuGENE6 (Roche Applied Science). Thereafter, the HEK293 cells were cultured in a carbon dioxide gas incubator at 37° C. for 24 hours, and the medium was exchanged with D-MEM medium (Invitrogen) containing 2% fetal bovine serum. After culturing for 48 hr, a culture supernatant containing recombinant type mouse Shh-N end fragment was obtained by filtration using a filter ([…]).
Using D-MEM (Invitrogen) containing 10% fetal bovine serum, expression plasmid pcDNA3.1 and Gli reporter plasmid (pGL3/δ-cry promoter, 8×Gli binding site) produced by the method of Experimental Example 1 were introduced into NIH-3T3 cells grown in a 10 cm dish by the use of FuGENE6 (Roche Applied Science).
After culture for 24 hr, the cells were recovered, suspended in D-MEM medium containing 10% fetal bovine serum and supplemented with Geneticin (Life Technologies Oriental, Inc.) to a final concentration of 500 μg/ml, diluted to 10^4 cells/ml, plated on a 96 well plate, and cultured in a carbon dioxide gas incubator at 37° C. to give Geneticin resistant transformed cell line.
The obtained transformed cell line was cultured in a 96 well plate, mouse Shh-N end fragment obtained in Experimental Example 3 was added, and NIH-3T3/Gli reporter cell, which is a cell line capable of induction of luciferase expression, was selected.
NIH-3T3/Gli reporter cells cultured in D-MEM (Invitrogen) containing 10% fetal bovine serum were plated in a 96 well white plate at 1×10^4 cells/well, and cultured overnight in a carbon dioxide gas incubator at 37° C. The medium was removed, a compound (50 μl) and culture supernatant of mouse Shh-N end fragment-expressing HEK293 (D-MEM medium containing 2% fetal bovine serum, 50 μl) were added, and the cells were cultured for 48 hr in a carbon dioxide gas incubator at 37° C. Bright-Glo (Promega, 50 μl) was added, and the mixture was stirred, after which luciferase activity was measured by EnVision (PerkinElmer). The inhibition rate was calculated based on the luciferase activity of the control without addition of the compound as 100.
On to `Cc1nc2c(c(OCC(F)(F)F)c(C(=O)NC3CCN(C(=O)CO)CC3)n2C)c(=O)n1CC(=O)c1ccccc1` [Example 1, N-[1-(hydroxyacetyl)piperidin-4-yl]-2,7-dimethyl-4-oxo-3-(2-oxo-2-phenylethyl)-5-(2,2,2-trifluoroethoxy)-4,7-dihydro-3H-pyrrolo[2,3-d]pyrimidine-6-carboxamide], for which the inhibition at 1 µM came out at 98%.

In the case of `CCOc1c(C(=O)NC2CCN(C(=O)CO)CC2)n(C)c2nc(C)n(CC(=O)c3ccccc3)c(=O)c12` [Example 2, 5-ethoxy-N-[1-(hydroxyacetyl)piperidin-4-yl]-2,7-dimethyl-4-oxo-3-(2-oxo-2-phenylethyl)-4,7-dihydro-3H-pyrrolo[2,3-d]pyrimidine-6-carboxamide], the inhibition at 1 µM was 95%.

`Cc1nc2c(c(OC(C)C)c(C(=O)NC3CCN(C(=O)CO)CC3)n2C)c(=O)n1CC(=O)c1ccccc1` [Example 3, N-[1-(hydroxyacetyl)piperidin-4-yl]-2,7-dimethyl-5-(1-methylethoxy)-4-oxo-3-(2-oxo-2-phenylethyl)-4,7-dihydro-3H-pyrrolo[2,3-d]pyrimidine-6-carboxamide]: the inhibition at 1 µM is 93%.

On to `Cc1nc2c(c(OCC(F)(F)F)c(C(=O)NC3CCN(C(=O)CO)CC3)n2C)c(=O)n1Cc1ccccc1` [Example 4, 3-benzyl-N-[1-(hydroxyacetyl)piperidin-4-yl]-2,7-dimethyl-4-oxo-5-(2,2,2-trifluoroethoxy)-4,7-dihydro-3H-pyrrolo[2,3-d]pyrimidine-6-carboxamide], for which the inhibition at 1 µM was 98%.

`Cc1nc2c(c(OCC(F)(F)F)c(C(=O)NC3CCN(C(=O)CO)CC3)n2C)c(=O)n1Cc1ccc(F)cc1` [Example 5, 3-(4-fluorobenzyl)-N-[1-(hydroxyacetyl)piperidin-4-yl]-2,7-dimethyl-4-oxo-5-(2,2,2-trifluoroethoxy)-4,7-dihydro-3H-pyrrolo[2,3-d]pyrimidine-6-carboxamide]: the inhibition at 1 µM is 100%.

For `COc1cccc(Cn2c(C)nc3c(c(OCC(F)(F)F)c(C(=O)NC4CCN(C(=O)CO)CC4)n3C)c2=O)c1` [Example 6, N-[1-(hydroxyacetyl)piperidin-4-yl]-3-(3-methoxybenzyl)-2,7-dimethyl-4-oxo-5-(2,2,2-trifluoroethoxy)-4,7-dihydro-3H-pyrrolo[2,3-d]pyrimidine-6-carboxamide], the inhibition at 1 µM is 97%.

With `COc1ccccc1Cn1c(C)nc2c(c(OCC(F)(F)F)c(C(=O)NC3CCN(C(=O)CO)CC3)n2C)c1=O` [Example 8, N-[1-(hydroxyacetyl)piperidin-4-yl]-3-(2-methoxybenzyl)-2,7-dimethyl-4-oxo-5-(2,2,2-trifluoroethoxy)-4,7-dihydro-3H-pyrrolo[2,3-d]pyrimidine-6-carboxamide], the inhibition at 1 µM was 96%.

As for `Cc1nc2c(c(OCC(F)(F)F)c(C(=O)NC3CCN(C(=O)CO)CC3)n2C)c(=O)n1Cc1ccc(Cl)cc1` [Example 9, 3-(4-chlorobenzyl)-N-[1-(hydroxyacetyl)piperidin-4-yl]-2,7-dimethyl-4-oxo-5-(2,2,2-trifluoroethoxy)-4,7-dihydro-3H-pyrrolo[2,3-d]pyrimidine-6-carboxamide], the inhibition at 1 µM turned out to be 95%.

`Cc1nc2c(c(OCC(F)(F)F)c(C(=O)NC3CCN(C(=O)CO)CC3)n2C)c(=O)n1Cc1cccc(Cl)c1` [Example 10, 3-(3-chlorobenzyl)-N-[1-(hydroxyacetyl)piperidin-4-yl]-2,7-dimethyl-4-oxo-5-(2,2,2-trifluoroethoxy)-4,7-dihydro-3H-pyrrolo[2,3-d]pyrimidine-6-carboxamide]: the inhibition at 1 µM was 98%.

Consider `CCCCCn1c(C)nc2c(c(OCC(F)(F)F)c(C(=O)NC3CCN(C(=O)CO)CC3)n2C)c1=O` [Example 11, N-[1-(hydroxyacetyl)piperidin-4-yl]-2,7-dimethyl-4-oxo-3-pentyl-5-(2,2,2-trifluoroethoxy)-4,7-dihydro-3H-pyrrolo[2,3-d]pyrimidine-6-carboxamide], for which the inhibition at 1 µM came to 96%.

As to `Cc1nc2c(c(OCC(F)(F)F)c(C(=O)NC3CCN(C(=O)CO)CC3)n2C)c(=O)n1CCc1ccccc1` [Example 12, N-[1-(hydroxyacetyl)piperidin-4-yl]-2,7-dimethyl-4-oxo-3-(2-phenylethyl)-5-(2,2,2-trifluoroethoxy)-4,7-dihydro-3H-pyrrolo[2,3-d]pyrimidine-6-carboxamide], the inhibition at 1 µM is 98%.

Regarding `CCc1nc2c(c(OCC(F)(F)F)c(C(=O)NC3CCN(C(=O)CO)CC3)n2C)c(=O)n1CC(=O)c1ccccc1` [Example 13, 2-ethyl-N-[1-(hydroxyacetyl)piperidin-4-yl]-7-methyl-4-oxo-3-(2-oxo-2-phenylethyl)-5-(2,2,2-trifluoroethoxy)-4,7-dihydro-3H-pyrrolo[2,3-d]pyrimidine-6-carboxamide], the inhibition at 1 µM was 97%.

Consider `Cc1nc2c(c(OCC(F)(F)F)c(C(=O)NC3CCN(C(=O)CO)CC3)n2C)c(=O)n1Cc1ccccc1Cl` [Example 14, 3-(2-chlorobenzyl)-N-[1-(hydroxyacetyl)piperidin-4-yl]-2,7-dimethyl-4-oxo-5-(2,2,2-trifluoroethoxy)-4,7-dihydro-3H-pyrrolo[2,3-d]pyrimidine-6-carboxamide], for which the inhibition at 1 µM amounted to 95%.

For `Cc1nc2c(c(OCC(F)(F)F)c(C(=O)NC3CCN(C(=O)CO)CC3)n2C)c(=O)n1CCc1ccc(F)cc1` [Example 15, 3-[2-(4-fluorophenyl)ethyl]-N-[1-(hydroxyacetyl)piperidin-4-yl]-2,7-dimethyl-4-oxo-5-(2,2,2-trifluoroethoxy)-4,7-dihydro-3H-pyrrolo[2,3-d]pyrimidine-6-carboxamide], the inhibition at 1 µM came out at 97%.

As to `CCc1nc2c(c(OCC(F)(F)F)c(C(=O)NC3CCOCC3)n2C)c(=O)n1CC(=O)c1ccccc1` [Example 16, 2-ethyl-7-methyl-4-oxo-3-(2-oxo-2-phenylethyl)-N-(tetrahydro-2H-pyran-4-yl)-5-(2,2,2-trifluoroethoxy)-4,7-dihydro-3H-pyrrolo[2,3-d]pyrimidine-6-carboxamide], the inhibition at 1 µM was 97%.

`CCc1nc2c(c(OCC(F)(F)F)c(C(=O)NC3CCN(C(=O)CO)CC3)n2C)c(=O)n1Cc1cccc(Cl)c1` [Example 17, 3-(3-chlorobenzyl)-2-ethyl-N-[1-(hydroxyacetyl)piperidin-4-yl]-7-methyl-4-oxo-5-(2,2,2-trifluoroethoxy)-4,7-dihydro-3H-pyrrolo[2,3-d]pyrimidine-6-carboxamide]: the inhibition at 1 µM turned out to be 98%.

As to `CCOc1c(C(=O)NC2CCN(C(=O)CO)CC2)sc2nc(C)n(CC(=O)c3ccccc3)c(=O)c12` [Example 18, 5-ethoxy-N-[1-(hydroxyacetyl)piperidin-4-yl]-2-methyl-4-oxo-3-(2-oxo-2-phenylethyl)-3,4-dihydrothieno[2,3-d]pyrimidine-6-carboxamide], the inhibition at 1 µM is 97%.

`CCc1nc2c(c(OCC(F)(F)F)c(C(=O)NC3CC[S+]([O-])CC3)n2C)c(=O)n1CC(=O)c1ccccc1` (stereo not drawn) [Example 21, 2-ethyl-7-methyl-N-(1-oxidetetrahydro-2H-thiopyran-4-yl)-4-oxo-3-(2-oxo-2-phenylethyl)-5-(2,2,2-trifluoroethoxy)-4,7-dihydro-3H-pyrrolo[2,3-d]pyrimidine-6-carboxamide]: the inhibition at 1 µM came to 97%.
